Source: ChEMBL document CHEMBL1201862, “PubChem BioAssay data set” (2004)
Calls of active or inactive are those of the source.

Legend:
[1] = molecular target: DNA damage-inducible transcript 3 protein (Mus musculus, UniProt P35639); type: functional, Cricetulus griseus
[2] = molecular target: T1, Heat shock factor protein 1 (Mus musculus, UniProt P38532); assay: enhancement of HSF1-driven luciferase signal – cell-based, NIH3T3, luminescence, dose retest, confirmation (AID 435004); type: functional;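 further: stress induced by proteasome inhibitor MG132 added 30 min after compound; luciferase reporter driven by HSF1 response element in NIH3T3 cells; actives raise luminescence as potentiators of the MG132 stress response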
T1 sequence (P38532 whole entry): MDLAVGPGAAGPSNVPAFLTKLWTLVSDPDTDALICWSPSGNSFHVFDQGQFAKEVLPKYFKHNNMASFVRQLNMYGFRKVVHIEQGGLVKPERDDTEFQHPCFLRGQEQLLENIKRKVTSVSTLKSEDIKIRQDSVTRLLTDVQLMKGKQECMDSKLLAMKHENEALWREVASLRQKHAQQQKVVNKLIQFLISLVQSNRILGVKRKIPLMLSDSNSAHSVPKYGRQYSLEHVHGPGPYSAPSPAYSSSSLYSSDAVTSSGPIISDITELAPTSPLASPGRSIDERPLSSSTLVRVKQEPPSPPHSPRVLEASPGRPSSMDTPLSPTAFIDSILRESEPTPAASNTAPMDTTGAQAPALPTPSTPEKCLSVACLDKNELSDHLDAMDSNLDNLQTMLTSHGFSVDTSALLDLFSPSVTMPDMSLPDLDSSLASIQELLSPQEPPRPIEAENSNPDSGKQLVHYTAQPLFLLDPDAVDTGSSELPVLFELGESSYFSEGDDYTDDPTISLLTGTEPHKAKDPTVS

Coagulation factor XII = molecular target: T2, Coagulation factor XII (Homo sapiens, UniProt P00748); type: functional;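 further: activated factor XIIa alpha cleaving a fluorogenic AMC peptide substrate; inhibitor potency from loss of enzyme activity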
T2 sequence (P00748 whole entry): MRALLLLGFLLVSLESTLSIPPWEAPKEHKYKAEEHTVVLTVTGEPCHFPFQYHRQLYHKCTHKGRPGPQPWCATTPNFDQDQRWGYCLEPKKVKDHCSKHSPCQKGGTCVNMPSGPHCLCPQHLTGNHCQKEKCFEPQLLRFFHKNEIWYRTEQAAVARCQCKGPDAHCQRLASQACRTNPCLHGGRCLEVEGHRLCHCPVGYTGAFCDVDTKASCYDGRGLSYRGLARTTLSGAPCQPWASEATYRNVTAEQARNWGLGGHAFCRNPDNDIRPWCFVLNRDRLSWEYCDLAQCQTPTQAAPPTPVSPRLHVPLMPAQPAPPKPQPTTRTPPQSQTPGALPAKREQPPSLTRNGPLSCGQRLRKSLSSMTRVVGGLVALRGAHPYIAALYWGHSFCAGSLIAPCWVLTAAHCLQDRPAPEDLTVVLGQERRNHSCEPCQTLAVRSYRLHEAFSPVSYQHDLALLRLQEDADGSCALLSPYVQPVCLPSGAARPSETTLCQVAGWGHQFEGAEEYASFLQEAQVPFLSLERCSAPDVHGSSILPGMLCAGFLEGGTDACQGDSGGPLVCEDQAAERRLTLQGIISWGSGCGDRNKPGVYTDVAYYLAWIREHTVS

Cysteine protease ATG4B = molecular target: T3, Cysteine protease ATG4B (Homo sapiens, UniProt Q9Y4P1); type: functional;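 further: Fluorescence-based dose-response confirmation assay measuring inhibition of ATG4B activity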
T3 sequence (Q9Y4P1 whole entry): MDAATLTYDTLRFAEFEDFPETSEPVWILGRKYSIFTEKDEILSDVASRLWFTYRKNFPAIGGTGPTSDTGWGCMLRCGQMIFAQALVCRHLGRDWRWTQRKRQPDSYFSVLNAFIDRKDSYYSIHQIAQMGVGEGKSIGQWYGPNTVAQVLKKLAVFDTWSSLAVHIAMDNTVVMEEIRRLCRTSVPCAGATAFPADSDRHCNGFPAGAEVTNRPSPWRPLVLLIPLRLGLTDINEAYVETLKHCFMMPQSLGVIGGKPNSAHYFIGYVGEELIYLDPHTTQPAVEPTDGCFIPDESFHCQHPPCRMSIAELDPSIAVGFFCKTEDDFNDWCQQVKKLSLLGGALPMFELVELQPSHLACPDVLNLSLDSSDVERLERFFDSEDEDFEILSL

Phospholipase A2 = Phospholipase A2 (Homo sapiens, UniProt P04054); type: functional;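 further: confirmatory dose-response counterscreen on phospholipase A2, testing hits that came from an ultra-high-throughput screen for ATG4B inhibitors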
Chain of Phospholipase A2 (P04054 whole entry): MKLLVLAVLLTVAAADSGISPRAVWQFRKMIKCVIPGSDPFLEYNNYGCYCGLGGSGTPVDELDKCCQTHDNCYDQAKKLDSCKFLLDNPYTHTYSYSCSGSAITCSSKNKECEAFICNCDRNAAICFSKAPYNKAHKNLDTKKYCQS

Protein RecA = molecular target: T4, Protein RecA (Mycobacterium tuberculosis, UniProt P9WHJ3); assay: Fluorescence Cell-Free Homogeneous Dose Retest to Identify Inhibitors of RecA-Intein Splicing Activity. [Related pubchem assays (depositor defined):AID2097, AID2223, AID489010, AID492950]; type: functional
T4 sequence (P9WHJ3 whole entry): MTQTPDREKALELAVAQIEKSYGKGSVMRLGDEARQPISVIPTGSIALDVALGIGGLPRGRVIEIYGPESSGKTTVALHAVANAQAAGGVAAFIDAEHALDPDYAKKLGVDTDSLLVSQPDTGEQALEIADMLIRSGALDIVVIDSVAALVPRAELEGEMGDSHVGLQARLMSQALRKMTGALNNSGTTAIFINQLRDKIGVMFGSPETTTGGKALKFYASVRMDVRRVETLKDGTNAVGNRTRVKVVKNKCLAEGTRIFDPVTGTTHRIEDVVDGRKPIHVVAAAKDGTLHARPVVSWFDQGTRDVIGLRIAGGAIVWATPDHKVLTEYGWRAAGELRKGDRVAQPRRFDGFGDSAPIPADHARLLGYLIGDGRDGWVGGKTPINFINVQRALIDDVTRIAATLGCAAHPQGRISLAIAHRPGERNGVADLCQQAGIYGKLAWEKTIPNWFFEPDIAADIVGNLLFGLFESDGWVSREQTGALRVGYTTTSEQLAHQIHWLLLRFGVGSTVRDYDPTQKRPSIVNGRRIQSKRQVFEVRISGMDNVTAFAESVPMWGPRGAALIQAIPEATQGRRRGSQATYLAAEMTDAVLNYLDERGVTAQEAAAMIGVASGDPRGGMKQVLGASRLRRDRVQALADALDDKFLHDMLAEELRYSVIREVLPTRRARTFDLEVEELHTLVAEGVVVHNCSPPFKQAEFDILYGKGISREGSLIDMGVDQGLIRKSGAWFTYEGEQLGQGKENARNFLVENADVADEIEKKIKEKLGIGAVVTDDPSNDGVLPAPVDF

[3] = molecular target: T5, Probable nicotinate-nucleotide adenylyltransferase (Staphylococcus aureus (strain N315), UniProt P65502); type: functional, Staphylococcus aureus subsp. aureus N315; settings: read-out: IC50_Mean;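 on IC50 Mean: confirmatory dose-response retesting of NadD inhibitor hits first found in an ultra-high-throughput screen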
T5 sequence (P65502 whole entry): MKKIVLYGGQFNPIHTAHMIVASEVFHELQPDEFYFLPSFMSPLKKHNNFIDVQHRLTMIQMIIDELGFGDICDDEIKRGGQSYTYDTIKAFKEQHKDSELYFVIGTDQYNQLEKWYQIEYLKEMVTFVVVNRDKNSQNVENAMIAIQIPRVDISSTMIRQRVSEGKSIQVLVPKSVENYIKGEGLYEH

[4] = molecular target: T6, Replicative DNA helicase DnaB (Mycobacterium tuberculosis, UniProt P9WMR3); assay: DnaB intein splicing inhibitors, dose response, biochemical, cell-free fluorescence (AID 449749); type: functional
T6 sequence (P9WMR3 whole entry): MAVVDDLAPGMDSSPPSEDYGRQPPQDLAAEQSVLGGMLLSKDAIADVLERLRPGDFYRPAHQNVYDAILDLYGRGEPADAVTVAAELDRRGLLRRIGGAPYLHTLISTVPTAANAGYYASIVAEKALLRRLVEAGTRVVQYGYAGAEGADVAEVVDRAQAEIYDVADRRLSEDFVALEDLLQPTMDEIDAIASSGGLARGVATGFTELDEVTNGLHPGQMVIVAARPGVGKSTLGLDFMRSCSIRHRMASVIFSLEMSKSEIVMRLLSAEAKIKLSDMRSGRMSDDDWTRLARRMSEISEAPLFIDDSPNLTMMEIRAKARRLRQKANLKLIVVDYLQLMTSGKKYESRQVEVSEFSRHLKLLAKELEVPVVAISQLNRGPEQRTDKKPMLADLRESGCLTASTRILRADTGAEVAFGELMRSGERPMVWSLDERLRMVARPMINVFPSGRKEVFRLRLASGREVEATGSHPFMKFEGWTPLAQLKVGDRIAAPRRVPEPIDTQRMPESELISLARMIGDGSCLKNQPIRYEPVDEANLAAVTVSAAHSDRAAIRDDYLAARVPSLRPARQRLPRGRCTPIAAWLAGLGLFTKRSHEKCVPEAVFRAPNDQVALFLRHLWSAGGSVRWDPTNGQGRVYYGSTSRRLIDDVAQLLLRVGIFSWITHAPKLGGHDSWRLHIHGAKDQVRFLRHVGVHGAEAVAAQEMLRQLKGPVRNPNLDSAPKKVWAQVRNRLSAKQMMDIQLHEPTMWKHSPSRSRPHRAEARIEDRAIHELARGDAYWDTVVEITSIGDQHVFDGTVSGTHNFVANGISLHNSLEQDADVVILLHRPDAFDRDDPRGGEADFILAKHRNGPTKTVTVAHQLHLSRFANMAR

[5] = molecular target: T5, Probable nicotinate-nucleotide adenylyltransferase; type: functional, Staphylococcus aureus subsp. aureus N315
BJ [6] = assay: cells; type: functional, cell-based; settings: Homo sapiens
[7] = DRD fibroblast viability loss – cell-based, non-viral oncogenic, luminescence, dose response (AID 1934); type: functional; settings: Homo sapiens
[8] = Vero E6 cell cytotoxicity, dose response, cytotoxicity control for non-replicating M. tuberculosis project, secondary assay (AID 492998); type: functional, VeroE6; settings: Vero C1008
BJ [9] = assay: BJ-TERT-LT-ST fibroblast viability loss – cell-based, RAS-independent, luminescence, dose response (AID 1935); type: functional; settings: Homo sapiens;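 further: BJ fibroblasts immortalized with TERT plus LT and ST oncogenes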
cells = type: functional
[10] = viability of PTEN-deleted HCT116 cells – cell-based, HCT116 PTEN knockout, dose response (AID 1047); type: functional;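 further: HCT116 colon tumor cells with PTEN knocked out; cells exposed to compound for 60 hours before readout; potency for loss of cell viability measured by luminescence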
[11] = viability of HCT116 lacking mutant beta-catenin – cell-based, human colon tumor, dose response (AID 1045); type: functional;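 further: HCT116 colon tumor cells with beta catenin knocked out; cells exposed to compound for 60 hours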
[12] = HepG2 cell cytotoxicity, dose response, cytotoxicity control for non-replicating M. tuberculosis project (AID 489018); type: functional; settings: Mycobacterium tuberculosis
[13] = molecular target: T7, Tyrosyl-DNA phosphodiesterase 2 (Homo sapiens, UniProt O95551); assay: potency against TDP2 phosphodiesterase activity – biochemical, epi absorbance, IC50, dose response (AID 743297)
T7 sequence (O95551 whole entry): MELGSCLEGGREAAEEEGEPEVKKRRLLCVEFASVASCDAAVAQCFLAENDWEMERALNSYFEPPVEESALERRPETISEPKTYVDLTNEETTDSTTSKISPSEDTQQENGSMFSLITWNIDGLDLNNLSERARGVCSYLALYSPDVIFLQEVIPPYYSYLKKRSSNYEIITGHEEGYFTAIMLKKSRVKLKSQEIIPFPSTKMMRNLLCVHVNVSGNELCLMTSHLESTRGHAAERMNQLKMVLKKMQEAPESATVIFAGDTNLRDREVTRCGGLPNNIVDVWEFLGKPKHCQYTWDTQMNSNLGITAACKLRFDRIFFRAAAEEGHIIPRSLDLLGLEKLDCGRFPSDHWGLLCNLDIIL

[14] = NIH3T3 cell viability loss – ATP luminescence, mouse fibroblasts, counter-screen, dose response (AID 2010); type: functional, cell-based;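 further: cells exposed to compound for about 90 hours before reading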
[15] = Trypanosoma cruzi growth suppression in host cells – NIH3T3 host cells, beta-gal luminescence, confirmation (AID 2044); type: functional, cell-based;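 further: intracellular parasites grown in NIH/3T3 mouse fibroblasts as host cells; luminescent beta-galactosidase reporter signal from transgenic T. cruzi replicating inside host cells; inhibitors lower the luminescence signal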
[16] = microbe, parasite or virus in culture; type: functional; settings: Mycobacterium tuberculosis
[17] = THP-1 cell cytotoxicity, dose response, cytotoxicity control for non-replicating M. tuberculosis project (AID 489025); type: functional
BJ [18] = assay: BJ-TERT fibroblast viability loss – cell-based, RAS-independent, luminescence, dose response (AID 1933); type: functional; settings: Homo sapiens
[19] = molecular target: T8, Mannose-6-phosphate isomerase (Homo sapiens, UniProt P34949); assay: MPI inhibition at elevated mannose 6-phosphate – biochemical, fluorescence intensity, high mannose 6-phosphate, primary screen (AID 1220)
T8 sequence (P34949 whole entry): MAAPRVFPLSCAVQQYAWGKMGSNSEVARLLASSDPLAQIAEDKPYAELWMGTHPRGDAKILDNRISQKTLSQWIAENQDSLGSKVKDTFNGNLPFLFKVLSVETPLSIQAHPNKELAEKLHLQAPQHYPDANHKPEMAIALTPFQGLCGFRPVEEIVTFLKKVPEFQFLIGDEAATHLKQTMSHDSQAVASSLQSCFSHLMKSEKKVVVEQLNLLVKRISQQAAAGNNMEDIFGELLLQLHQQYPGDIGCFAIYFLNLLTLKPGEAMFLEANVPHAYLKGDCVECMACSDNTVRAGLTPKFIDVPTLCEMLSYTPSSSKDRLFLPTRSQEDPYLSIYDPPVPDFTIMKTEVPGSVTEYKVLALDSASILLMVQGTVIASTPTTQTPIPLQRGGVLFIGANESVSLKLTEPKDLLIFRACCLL

INS1 = assay: INS-1E survival protection against cytokine death – cell-based, luminescence, retest, dose response (AID 449756); type: functional; settings: Rattus norvegicus;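 further: cell death triggered by IL-1 beta plus TNF-alpha plus IFN-gamma mixture; protective hits raise ATP signal compared with cytokine alone wells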

Chain of DNA damage-inducible transcript 3 protein (P35639 whole entry): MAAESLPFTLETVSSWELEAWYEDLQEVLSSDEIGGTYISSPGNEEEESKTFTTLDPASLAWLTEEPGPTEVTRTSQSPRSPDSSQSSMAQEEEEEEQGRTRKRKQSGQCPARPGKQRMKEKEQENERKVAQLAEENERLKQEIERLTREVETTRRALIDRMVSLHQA

CCn1cc([N+](=O)[O-])c(C(=O)N2N=C(c3ccc(Cl)c(Cl)c3)CC2c2ccccc2O)n1 (stereo unspecified)
Absolute IC50 (CHOP) [1]: 10 µM
EC50 [2]: > 260 µM (inactive)

CCC1SC(CC)C(=O)N(CC(=O)NC2CCCCC2)C1=O (stereo unspecified)
IC50 (Coagulation factor XII): > 50 µM (inactive)

CN(C)c1ccc(-c2nnn(Cc3ccccc3Br)n2)cc1
IC50 (Cysteine protease ATG4B): 13.2 µM (active)
IC50 (Phospholipase A2): 7.95 µM (active)

CC(=O)c1ccc(N2CCN(S(=O)(=O)c3cccc(S(=O)(=O)N4CCOCC4)c3)CC2)cc1
IC50 (Coagulation factor XII): > 50 µM (inactive)

CCOc1ccc(N2C(=O)/C(=C\c3ccc(O)c(OC)c3)S(=O)(=O)C2c2cccc([N+](=O)[O-])c2)cc1 (stereo unspecified)
EC50 (Protein RecA): 3.74 µM (active)
Absolute IC50 (CHOP) [1]: 10 µM
EC50 [2]: 8.52 µM (active)
IC50 [3]: 35.9 µM (active)
AC50 [4]: 2.96 µM (active)
IC50 [5]: 9.57 µM (active)

O=C1OC(Nc2ncccn2)c2ccccc21 (stereo unspecified)
IC50 (Coagulation factor XII): > 50 µM (inactive)

CCCNC1=C(N(C(C)=O)c2cccc(F)c2)C(=O)c2ccccc2C1=O
EC50 (BJ [6]): 5.96 µM (active)
EC50 [7]: 6.47 µM (active)
EC50 (Protein RecA): 2.06 µM (active)
CC50 [8]: 17.7 µM (active)
EC50 (BJ [9]): 6.6 µM (active)
IC50 (cells): 20.8 µM (active)
EC50 [10]: 1.14 µM (active)
EC50 [11]: 979 nM (active)
CC50 [12]: 8.6 µM (active)
AC50 [4]: 9.44 µM (active)
IC50 [13]: > 4.75 µM (active)
EC50 [14]: 10.3 µM (active)
EC50 [15]: 1.23 µM (active)
CC50 [16]: 31 µM (active)
CC50 [17]: 1.47 µM (active)
EC50 (BJ [18]): 6.47 µM (inconclusive)
IC50 [19]: > 50 µM (not active)
AC50 (INS1): 1.03 µM (active)
